# Measurements taken from patent publication US20080171718A1, “Methods and Compositions for Treating Cancer Using BCL-2 Antisense Oligomers, Tyrosine Kinase Inhibitors, and Chemotherapeutic Agents” (priority 2006, published 2008).
# “Also recorded” adds a separate entry of the source.
# Test system: A549 human lung cancer model
# Test: Tumor growth delay in A549 human lung cancer model in SCID mice
# Assay type: in vivo
# Details: for effect of the tyrosine kinase inhibitor in triplet therapy with Bcl-2 antisense and cytotoxic chemotherapeutic (comparison, interaction): A549 model, triplet with Genasense and Taxol/Abraxane
# Description: Genasense® (G3139 by Genta, Bcl-2 inhibitor, also referred to in the Figures as “OBL”), Abraxane® (by Abraxis, paclitaxel), and Taxol® (by Bristol Myers Squibb, paclitaxel) were submitted for evaluation in combination with tyrosine kinase inhibitors against an A549 human lung cancer model in severe combined immune deficient (SCID) mice. Ten treatment groups having 10 mice per group were analyzed for tumor growth delay. G3139, Abraxane, and Taxol were administered via intravenous (IV) injection, and tyrosine kinase inhibitors were administered via oral gavage (PO).
# The mice were injected with 100 μl tumor cells subcutaneously (SC). […] On the 15th day, treatment cycles of 5 days on and 2 days off began for a series of 3 cycles. During treatment, the mice were weighed twice daily. Tumor volume estimation (mm^3) was made in accordance with the formula (a^2×b/2), where “a” is the smallest diameter and “b” is the largest diameter. All procedures were completed in accordance with established animal care protocols.
# Subconfluent cells were harvested by using 0.23% trypsin-EDTA (HyClone, Logan, Utah) and were counted using the trypan blue assay technique. Cells (99% viability) were re-suspended at the concentration of 10×10^6 cells/100 μl of sterile saline.
# G3139 was prepared fresh each treatment day from a refrigerated stock solution of 30 mg/ml using sterile saline as the vehicle; while tyrosine kinase inhibitors in capsule form were brought up to the desired concentration using 10% DMSO and 90% sterile saline as the vehicle. Taxol (Infusion Solutions, Tucson, Az.) was prepared fresh each treatment day from a refrigerated stock solution of 6 mg/ml in Cremaphor EL/EtOH using sterile saline as the vehicle. Abraxane was prepared from a frozen stock of 5 mg/ml with the diluent of sterile saline. G3139 (20 mg/kg) was administered twice during each 5-day treatment cycle, on day 3 and on day 5. […] G3139 was administered at a volume of 0.1 ml using a 27 gauge needle (Becton Dickinson). Abraxane and Taxol were administered at a volume of 0.2 ml using a 27 gauge needle. […]
Compound,"effect of the tyrosine kinase inhibitor in triplet therapy with Bcl-2 antisense and cytotoxic chemotherapeutic (comparison, interaction)","tumor growth / tumor growth inhibition compared to the negative control (tumor volume versus days post implantation) (FIG. 1-3, single agent, SC A549 tumors, 3 cycles of 5 days on/2 days off from day 15, Taxol/Abraxane 13.4 mg/kg IV day 1, Gleevec 100 mg/kg, Sutent/Nexavar 40 mg/kg PO daily)"
"CNC(=O)c1cc(Oc2ccc(NC(=O)Nc3ccc(Cl)c(C(F)(F)F)c3)cc2)ccn1 [Nexavar, sorafenib]",comparable to Sutent in the triplet therapy and more effective than Gleevec; also recorded: unexpectedly enhanced interaction,minor and substantially similar tumor growth inhibition
"C#Cc1cccc(Nc2ncnc3cc(OCCOC)c(OCCOC)cc23)c1 [Tarceva, erlotinib]",does not significantly enhance the efficacy,–
